# Where a SMILES comes first, the peptide text is derived from it. The star is where a group is joined. For = O=C*
# Legend:
# [1] = system: formyl peptide receptor family (Hs_FPR1, Hs_FPR2, Mm_Fpr1, Mm_Fpr2); experiment: Summary of main findings: receptor subtype selectivity and ligand bias across all readouts; set-up: species or system human and mouse
# Source text: To determine ligand bias, a reference ligand is required, that is, “balanced” for the pathways tested.[37] […] We then used measurements of the activity ratio (Log (Emax/EC50)) for each receptor, ligand, and pathway in an attempt to observe any ligand bias (Fig. 6).
# Mm_Fpr2 [2] = target: T1, Mm_Fpr2 (Mus musculus, UniProt O88536); experiment: BRET receptor-RLuc8 interaction with Venus-mGsi; assay type: cell-based
# T1 construct: expressed in transfected cells
# T1 sequence (O88536 1-351): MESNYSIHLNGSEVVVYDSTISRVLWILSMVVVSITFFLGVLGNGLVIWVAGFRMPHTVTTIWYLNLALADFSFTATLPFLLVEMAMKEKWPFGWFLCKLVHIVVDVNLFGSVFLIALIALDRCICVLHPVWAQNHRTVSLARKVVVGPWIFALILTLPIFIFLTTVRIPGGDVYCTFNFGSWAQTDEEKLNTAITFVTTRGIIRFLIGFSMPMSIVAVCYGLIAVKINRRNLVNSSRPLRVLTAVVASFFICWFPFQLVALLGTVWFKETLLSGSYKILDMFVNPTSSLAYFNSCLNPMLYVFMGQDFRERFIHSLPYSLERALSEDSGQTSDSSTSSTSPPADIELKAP
# Description: (§1) BRET1 assays to measure FPR interaction with Venus-mGsi and Arrestin 3-yellow fluorescent protein (YFP) were performed as previously described.[31]^,[32] Briefly, all FPRs C-terminally fused to Renilla Luciferase (donor, RLuc8) were transiently transfected along with either Venus-mGsi or YFP-Arrestin 3 (acceptor) at a ratio of 1:4. 24 hours post transfection, cells were replated into white-walled, 96-well plates and cultured for a further 24–48 hours. On the day of experimentation, growth media was aspirated and replaced with 80 μl Hanks Buffered Saline Solution and equilibrated for 30 minutes. Coelenterazine h was added to each well to a final concentration of 5 μM for 5 minutes before the addition of each compound, and the plate was incubated for a further 10 minutes at 37 °C before being read on a ClarioStar Plus, with luminescence measured at 480/20 nm (donor) and 530/20 (acceptor). The BRET ratio (acceptor/donor) was determined, and the background (untreated) subtracted to give the N-BRET value.
# (§2) All data were analyzed using GraphPad Prism using the nonlinear regression log(agonist) versus response (3 parameters) function for all assays, except binding, which was analyzed using the One site-FitlogIC50 function. Bias calculations were carried out following IUPHAR guidelines as described,[27]^,[37] and data were presented as the Δ Activity ratio (Log[EmaxB/EC50B])-(Log[EmaxA/EC50A]).
# Mm_Fpr1 [3] = target: T2, Mm_Fpr1 (Mus musculus, UniProt P33766); experiment: BRET receptor-RLuc8 interaction with Venus-mGsi; assay type: cell-based
# T2 construct: expressed in transfected cells
# T2 sequence (P33766 1-364): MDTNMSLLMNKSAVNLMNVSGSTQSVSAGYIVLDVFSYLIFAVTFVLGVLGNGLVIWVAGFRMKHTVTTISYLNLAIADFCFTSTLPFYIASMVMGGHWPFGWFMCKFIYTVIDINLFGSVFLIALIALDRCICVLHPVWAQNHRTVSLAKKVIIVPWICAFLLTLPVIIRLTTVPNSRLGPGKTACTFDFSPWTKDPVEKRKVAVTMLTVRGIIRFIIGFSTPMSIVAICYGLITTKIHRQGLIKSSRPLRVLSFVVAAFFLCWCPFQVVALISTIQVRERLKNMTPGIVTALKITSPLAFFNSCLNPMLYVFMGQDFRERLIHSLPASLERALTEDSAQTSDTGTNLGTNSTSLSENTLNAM
# Description: as §1, §2
# Hs_FPR2 [4] = target: T3, Hs_FPR2 (Homo sapiens, UniProt P25090); experiment: BRET receptor-RLuc8 interaction with Venus-mGsi; assay type: cell-based
# T3 construct: expressed in transfected cells
# T3 sequence (P25090 1-351): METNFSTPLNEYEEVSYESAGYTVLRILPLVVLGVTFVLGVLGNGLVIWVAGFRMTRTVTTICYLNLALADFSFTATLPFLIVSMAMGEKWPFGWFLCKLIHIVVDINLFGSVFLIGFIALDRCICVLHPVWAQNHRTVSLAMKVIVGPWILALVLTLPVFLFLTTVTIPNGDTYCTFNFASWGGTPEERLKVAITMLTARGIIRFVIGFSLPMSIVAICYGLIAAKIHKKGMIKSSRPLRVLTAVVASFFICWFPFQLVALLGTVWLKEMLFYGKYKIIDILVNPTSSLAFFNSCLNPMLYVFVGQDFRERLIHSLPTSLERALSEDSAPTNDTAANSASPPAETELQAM
# Description: as §1, §2
# Mm_Fpr2 [5] = target: T1, Mm_Fpr2; experiment: ERK1/2 phosphorylation by Western blotting; assay type: cell-based
# Description: (§3) ERK phosphorylation was detected by Western blotting as previously described.[30] Briefly, HEK293 cells stably expressing FLAG-tagged FPRs were plated into 12-well culture plates until 90% confluent. On the day of the experiment, culture media was replaced with serum-free Dulbecco’s modified Eagle’s medium and incubated for 2 hours before stimulation with the indicated compounds. After 7 minutes, the media was removed and stimulation terminated by the addition of 100 μl sample buffer (0.5% SDS, Tris (pH 6.8), glycerol, at >90 °C).
# as §2
# Hs_FPR2 [6] = target: T3, Hs_FPR2; experiment: ERK1/2 phosphorylation by Western blotting; assay type: cell-based
# Description: as §3, §2
# Hs_FPR1 = target: T4, Hs_FPR1 (Homo sapiens, UniProt P21462); experiment: Internalization of FLAG-tagged receptors by flow cytometry; assay type: cell-based; set-up: Emax: dose or concentration left out as unconfirmed; conditions: Hs_FPR1, 30 min, relative to 1 μM WKYMVm
# T4 construct: expressed in transfected cells
# T4 sequence (P21462 1-350): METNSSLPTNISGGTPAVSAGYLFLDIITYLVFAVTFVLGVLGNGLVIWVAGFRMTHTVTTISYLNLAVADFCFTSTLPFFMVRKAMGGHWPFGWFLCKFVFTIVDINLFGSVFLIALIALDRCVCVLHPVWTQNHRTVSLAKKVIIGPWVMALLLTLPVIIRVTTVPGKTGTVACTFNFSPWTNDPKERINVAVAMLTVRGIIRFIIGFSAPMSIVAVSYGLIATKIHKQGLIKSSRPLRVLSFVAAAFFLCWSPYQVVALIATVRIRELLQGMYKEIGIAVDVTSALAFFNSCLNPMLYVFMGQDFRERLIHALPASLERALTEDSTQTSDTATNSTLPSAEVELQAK
# Description: (§4) Internalization of FPRs was measured by flow cytometry.[30] Briefly, cells were incubated with Alexa Fluor 657 conjugated M1 antiflag antibody (Sigma-Aldrich Cat# F3040, RRID:AB_439712) for 30 minutes at 37 °C to label surface receptors. Cells were then incubated with the indicated concentration of ligand before washing in PBS/0.04% EDTA to remove any remaining surface antibody. Remaining fluorescence was then measured using flow cytometry on either a BD FACScalibur or Attune, recording 5000 gated events. […] As a control, some samples were left untreated, and “strip only” was measured as a readout of constitutive endocytosis, and this value was subtracted from the data.
# as §2
# Hs_FPR2 [7] = target: T3, Hs_FPR2; experiment: as above; assay type: cell-based; set-up: Emax: dose or concentration left out as unconfirmed
# Description: as §4, §2
# Mm_Fpr2 [8] = target: T1, Mm_Fpr2; experiment: as above; assay type: cell-based; set-up: Emax: dose or concentration left out as unconfirmed
# Description: (§5) Internalization of FPRs was measured by flow cytometry.[30] Briefly, cells were incubated with Alexa Fluor 657 conjugated M1 antiflag antibody (Sigma-Aldrich Cat# F3040, RRID:AB_439712) for 30 minutes at 37 °C to label surface receptors. Cells were then incubated with the indicated concentration of ligand before washing in PBS/0.04% EDTA to remove any remaining surface antibody. Remaining fluorescence was then measured using flow cytometry on either a BD FACScalibur or Attune, recording 5000 gated events. […] As a control, some samples were left untreated, and “strip only” was measured as a readout of constitutive endocytosis, and this value was subtracted from the data. Vehicle control (0.1% DMSO) had no effect on internalization of receptors.
# as §2
# Mm_Fpr1 [9] = target: T2, Mm_Fpr1; experiment: as above; assay type: cell-based; set-up: Emax: dose or concentration left out as unconfirmed
# Description: as §5, §2
# Mm_Fpr2 [10] = target: T1, Mm_Fpr2; experiment: BRET receptor-RLuc8 interaction with Arrestin 3-YFP; assay type: cell-based
# Description: as §1, §2
# Hs_FPR2 [11] = target: T3, Hs_FPR2; experiment: as above; assay type: cell-based
# Description: as §1, §2
smiles,measurement,setting,value
"CC[C@H](C)[C@H](NC(=O)[C@H](CC(C)C)NC(=O)[C@H](CCCCN)NC(=O)[C@H](CCSC)NC(=O)[C@H](CC(C)C)NC(=O)[C@@H]1CCCN1C(=O)[C@H](CC(N)=O)NC(=O)[C@@H](NC(=O)[C@H](CCCCN)NC(=O)[C@H](CCCNC(=N)N)NC(=O)[C@H](CCSC)NC(=O)[C@@H]1CCCN1C(=O)[C@@H](NC(=O)[C@H](CCSC)NC=O)[C@@H](C)O)[C@@H](C)CC)C(=O)N[C@@H](CC(N)=O)C(=O)O [MCT-2, Formyl-MTPMRKINPLMKLIN] (For-MTPMRKINPLMKLIN-OH)",Bias,"[1]; summary grade of ligand bias relative to WKYMVm, key not given",No
same,Notes,"[1]; summary of main findings, in words",Partial agonist
same,Emax,Mm_Fpr2 [2],25%
same,Emax,Mm_Fpr1 [3],-8.19%
same,Emax,Hs_FPR2 [4],44.4%
same,Emax,Mm_Fpr2 [5],169%
same,Emax,Hs_FPR2 [6],93.9%
same,agonist-induced internalization (words),Hs_FPR1,failed to show appreciable internalization
same,Emax,Hs_FPR2 [7],63.3%
same,Emax,Mm_Fpr2 [8],43.9%
same,Emax,Mm_Fpr1 [9],7.39%
same,agonist-induced internalization (words),"Mm_Fpr1 [9]; Mm_Fpr1, 30 min, relative to 1 μM WKYMVm",failed to show appreciable internalization
same,Emax,Mm_Fpr2 [10],12.1%
same,Emax,Hs_FPR2 [11],51.8%
